Measurements published in patent US20210380556A1, “HETEROARYLAZOLE COMPOUND AND PEST CONTROL AGENT” (Nippon Soda Co., Ltd., priority 2018, published 2021).

Tested on: Mythimna separata
Test: Test Example 1: efficacy on Mythimna separata (treated artificial feed)
Format: in vivo
Conditions: 1 μl of emulsion (I) (5% active ingredient) in 0.8 g artificial feed; second instar larvae; 25° C.; fifth day
Text: 5 parts of the heteroaryl azole compound of the present invention, 93.6 parts of dimethylformamide, and 1.4 parts of polyoxyethylene alkyl aryl ether were mixed and dissolved to prepare emulsion (I) containing 5% of the active ingredient.
For a control, 98.5 parts of dimethylformamide and 1.5 parts of polyoxyethylene alkyl aryl ether were mixed and dissolved to prepare emulsion (II).
Insecticidal rate (%)=(The number of dead insects/The number of tested insects)×100
0.8 g of commercially available artificial feed (Insecta LFS, manufactured by Nosan Corp.) and 1 μl of the emulsion (I) were well mixed to obtain test feed.
A plastic test container (capacity: 1.4 ml) was packed with 0.2 g of the test feed per treatment plot. Then, two second instar larvae of Mythimna separata were inoculated to each treatment plot. A plastic lid was put on the test container so as to prevent escape of the second instar larvae of Mythimna separata. The container was placed in a thermostat chamber of 25° C. On the fifth day, the insecticidal rate and the food intake were examined. The test was conducted in duplicate.
The insecticidal rate and the food intake of a control plot were examined in the same way as in Test Example 1 except that the emulsion (I) was changed to the emulsion (II).

Row | SMILES | insecticidal rate or food intake as compared with the control plot
1 | CCS(=O)(=O)c1cnc(N)nc1-c1ncc(C(F)(F)C(F)(F)C(F)(F)C(F)(F)F)n1C [a-8] | insecticidal rate of 100% for Mythimna separata or a food intake of 10% or less
2 | CCS(=O)(=O)c1cnc(OC)nc1-c1ncc(C(F)(F)C(F)(F)C(F)(F)C(F)(F)F)n1C [a-9] | insecticidal rate of 100% for Mythimna separata or a food intake of 10% or less
3 | CCS(=O)(=O)c1cc(C2CC2)cnc1-c1ncc(C(F)(F)C(F)(F)C(F)(F)C(F)(F)F)n1C [b-1] | insecticidal rate of 100% for Mythimna separata or a food intake of 10% or less
4 | CCSc1cccnc1-c1ncc(C(F)(F)C(F)(F)C(F)(F)C(F)(F)F)n1C [b-2] | insecticidal rate of 100% for Mythimna separata or a food intake of 10% or less
5 | CCS(=O)(=O)c1cccnc1-c1ncc(C(F)(F)C(F)(F)C(F)(F)C(F)(F)F)n1C [b-3] | insecticidal rate of 100% for Mythimna separata or a food intake of 10% or less
6 | CCS(=O)(=O)c1cc(C(F)(F)F)cnc1-c1ncc(C(F)(F)C(F)(F)C(F)(F)C(F)(F)F)n1C [b-7] | insecticidal rate of 100% for Mythimna separata or a food intake of 10% or less
7 | CCS(=O)(=O)c1ccc(-n2cncn2)nc1-c1ncc(C(F)(F)C(F)(F)C(F)(F)C(F)(F)F)n1C [b-8] | insecticidal rate of 100% for Mythimna separata or a food intake of 10% or less
8 | CCS(=O)(=O)c1ccc(-c2ncccn2)nc1-c1ncc(C(F)(F)C(F)(F)C(F)(F)C(F)(F)F)n1C [b-9] | insecticidal rate of 100% for Mythimna separata or a food intake of 10% or less
9 | CCS(=O)(=O)c1ccc(-n2cncn2)nc1-c1ncc(C(F)C(F)(F)C(F)(F)C(F)(F)C(F)(F)F)n1C (stereo not drawn) [b-10] | insecticidal rate of 100% for Mythimna separata or a food intake of 10% or less
10 | CCS(=O)(=O)c1cccnc1-c1ncc(C(F)C(F)(F)C(F)(F)C(F)(F)C(F)(F)F)n1C (stereo not drawn) [b-11] | insecticidal rate of 100% for Mythimna separata or a food intake of 10% or less
11 | CCS(=O)(=O)c1ccc(N)nc1-c1ncc(C(F)(F)C(F)(F)C(F)(F)C(F)(F)F)n1C [b-12] | insecticidal rate of 100% for Mythimna separata or a food intake of 10% or less
12 | CCS(=O)(=O)c1ccc(-n2cncn2)nc1-c1ncc(C(Cl)C(F)(F)C(F)(F)C(F)(F)C(F)(F)F)n1C (stereo not drawn) [b-13] | insecticidal rate of 100% for Mythimna separata or a food intake of 10% or less
13 | CCS(=O)(=O)c1cc(C(F)(F)F)cnc1-c1ncc(C(F)(F)C(F)(F)C(F)(F)F)n1C [b-15] | insecticidal rate of 100% for Mythimna separata or a food intake of 10% or less
14 | CCS(=O)(=O)c1ccc(-n2cncn2)nc1-c1ncc(C(F)(F)C(F)(F)C(F)(F)F)n1C [b-16] | insecticidal rate of 100% for Mythimna separata or a food intake of 10% or less
15 | CCS(=O)(=O)c1ccc(-n2cncn2)nc1-c1ncc(C(F)(F)C(F)(F)F)n1C [b-17] | insecticidal rate of 100% for Mythimna separata or a food intake of 10% or less
16 | CCS(=O)(=O)c1cc(C2CC2)cnc1-c1ncc(C(F)C(F)(F)C(F)(F)C(F)(F)F)n1C (stereo not drawn) [b-18] | insecticidal rate of 100% for Mythimna separata or a food intake of 10% or less
17 | CCS(=O)(=O)c1cc(C2CC2)cnc1-c1ncc(C(F)(F)C(F)(F)C(F)(F)F)n1C [b-20] | insecticidal rate of 100% for Mythimna separata or a food intake of 10% or less
18 | CCS(=O)(=O)c1cc(-c2ncccn2)cnc1-c1ncc(C(F)(F)C(F)(F)F)n1C [b-22] | insecticidal rate of 100% for Mythimna separata or a food intake of 10% or less
19 | CCS(=O)(=O)c1cc(Br)cnc1-c1ncc(C(F)C(F)(F)C(F)(F)F)n1C (stereo not drawn) [b-23] | insecticidal rate of 100% for Mythimna separata or a food intake of 10% or less
20 | CCS(=O)(=O)c1cc(-c2ncccn2)cnc1-c1ncc(C(F)C(F)(F)C(F)(F)F)n1C (stereo not drawn) [b-24] | insecticidal rate of 100% for Mythimna separata or a food intake of 10% or less
21 | CCS(=O)(=O)c1cc(C2CC2)cnc1-c1ncc(C(F)C(F)(F)C(F)(F)F)n1C (stereo not drawn) [b-25] | insecticidal rate of 100% for Mythimna separata or a food intake of 10% or less

Row | SMILES | insecticidal rate or food intake as compared with the control plot
22 | CCS(=O)(=O)c1cc(C2CC2)cnc1-c1ncc(C(F)(F)C(F)(F)F)n1C [b-26] | insecticidal rate of 100% for Mythimna separata or a food intake of 10% or less
23 | CCS(=O)(=O)c1cc(-c2ccccn2)cnc1-c1ncc(C(F)C(F)(F)C(F)(F)F)n1C (stereo not drawn) [b-27] | insecticidal rate of 100% for Mythimna separata or a food intake of 10% or less
24 | CCS(=O)(=O)c1cc(-c2ccccn2)cnc1-c1ncc(C(F)(F)C(F)(F)C(F)(F)F)n1C [b-29] | insecticidal rate of 100% for Mythimna separata or a food intake of 10% or less
25 | CCS(=O)(=O)c1cc(-c2ncccn2)cnc1-c1ncc(C(Cl)C(F)(F)C(F)(F)F)n1C (stereo not drawn) [b-32] | insecticidal rate of 100% for Mythimna separata or a food intake of 10% or less
26 | CCS(=O)(=O)c1cc(-c2cc(F)cc(F)c2)cnc1-c1ncc(C(F)C(F)(F)C(F)(F)F)n1C (stereo not drawn) [b-34] | insecticidal rate of 100% for Mythimna separata or a food intake of 10% or less
27 | CCS(=O)(=O)c1cc(-c2cncnc2)cnc1-c1ncc(C(F)C(F)(F)C(F)(F)F)n1C (stereo not drawn) [b-35] | insecticidal rate of 100% for Mythimna separata or a food intake of 10% or less
28 | CCS(=O)(=O)c1cc(-n2ccc(C(F)(F)F)n2)cnc1-c1ncc(C(F)(F)C(F)(F)C(F)(F)F)n1C [b-36] | insecticidal rate of 100% for Mythimna separata or a food intake of 10% or less
29 | C=Cc1cnc(-c2ncc(C(F)C(F)(F)C(F)(F)F)n2C)c(S(=O)(=O)CC)c1 (stereo not drawn) [b-39] | insecticidal rate of 100% for Mythimna separata or a food intake of 10% or less
30 | CCS(=O)(=O)c1cc(NC(=O)C2CC2)cnc1-c1ncc(C(F)(F)C(F)(F)C(F)(F)F)n1C [b-41] | insecticidal rate of 100% for Mythimna separata or a food intake of 10% or less
31 | CCS(=O)(=O)c1cc(C(C)(C)C#N)cnc1-c1ncc(C(F)(F)C(F)(F)C(F)(F)F)n1C [b-42] | insecticidal rate of 100% for Mythimna separata or a food intake of 10% or less
32 | CCS(=O)(=O)c1cc(-c2ccccn2)cnc1-c1ncc(C(F)C(F)(C(F)(F)F)C(F)(F)F)n1C (stereo not drawn) [b-43] | insecticidal rate of 100% for Mythimna separata or a food intake of 10% or less
33 | CCS(=O)(=O)c1cc(-c2ccccn2)cnc1-c1ncc(C(Cl)C(F)(C(F)(F)F)C(F)(F)F)n1C (stereo not drawn) [b-44] | insecticidal rate of 100% for Mythimna separata or a food intake of 10% or less
34 | CCS(=O)(=O)c1cc(-n2cncn2)cnc1-c1ncc(C(F)(F)C(F)(F)C(F)(F)F)n1C [b-45] | insecticidal rate of 100% for Mythimna separata or a food intake of 10% or less
35 | CCS(=O)(=O)c1cc(C2CC2)cnc1-c1ncc(C(F)C(F)(C(F)(F)F)C(F)(F)F)n1C (stereo not drawn) [b-52] | insecticidal rate of 100% for Mythimna separata or a food intake of 10% or less
36 | CCS(=O)(=O)c1cc(C2CC2)cnc1-c1ncc(C(Cl)C(F)(C(F)(F)F)C(F)(F)F)n1C (stereo not drawn) [b-53] | insecticidal rate of 100% for Mythimna separata or a food intake of 10% or less
37 | CCS(=O)(=O)c1cc(-c2ncccc2C#N)cnc1-c1ncc(C(F)(F)C(F)(F)C(F)(F)F)n1C [b-54] | insecticidal rate of 100% for Mythimna separata or a food intake of 10% or less
38 | CCS(=O)(=O)c1cc(-c2ncccc2F)cnc1-c1ncc(C(F)(F)C(F)(F)C(F)(F)F)n1C [b-55] | insecticidal rate of 100% for Mythimna separata or a food intake of 10% or less
39 | CCS(=O)(=O)c1cc(C2(c3ccccn3)CC2)cnc1-c1ncc(C(F)C(F)(C(F)(F)F)C(F)(F)F)n1C (stereo not drawn) [b-57] | insecticidal rate of 100% for Mythimna separata or a food intake of 10% or less
40 | CCS(=O)(=O)c1cc(-c2ccccc2F)cnc1-c1ncc(C(F)(F)C(F)(F)C(F)(F)F)n1C [b-58] | insecticidal rate of 100% for Mythimna separata or a food intake of 10% or less
41 | CCS(=O)(=O)c1cc(-c2ccccn2)cnc1-c1ncc(C(F)(F)C(F)(F)C(F)(F)C(F)(F)F)n1C [b-59] | insecticidal rate of 100% for Mythimna separata or a food intake of 10% or less
42 | CCS(=O)(=O)c1cc(-c2cc(F)cc(F)c2)cnc1-c1ncc(C(F)(F)C(F)(F)C(F)(F)F)n1C [b-60] | insecticidal rate of 100% for Mythimna separata or a food intake of 10% or less
